What all share (format): physicochemical
The nature of series [1]: RP-TLC lipophilicity, silica gel C18, methanol-water. As to conditions: for C 0: RP-TLC silica gel C18, C0 = −RM^0/b; for PC1: RP-TLC silica gel C18, first principal component of RM values, contains 86.92% of information; for mRM: RP-TLC silica gel C18, mean value of RM; for R M ^0: RP-TLC silica gel C18, methanol-water 40 to 70% (v/v), intercept of Soczewiński–Wachtmeister equation; for b: RP-TLC silica gel C18, slope of Soczewiński–Wachtmeister equation. Here is the method:
(§1) The ready-to-use TLC glass plates covered by octadecyl(C18)- and octyl(C8)-modified TLC silica layers were purchased from Merck (Darmstadt, Germany). Stock solutions (5 µL) of the analytes were spotted manually on the plates with the use of a micropipette from Brand (Wertheim, Germany). The mobile phases were prepared by mixing appropriate volumes of pure organic solvents and water (in step gradient by 10% (v/v)), in the following proportions: (a) methanol–water ranging from 30 to 70% (v/v), in the case of C8-bonded silica gel stationary phase; and (b) methanol–water ranging from 40 to 70% (v/v), in the case of C18-bonded silica gel stationary phase.
(§2) Before analysis, the chromatographic chamber (Twin Trough Chambers from CAMAG Philadelphia, USA) was saturated for 20 min. All TLC experiments were performed at room temperature (22 ± 2 °C). Chromatograms were developed using the ascending technique to a distance of 8 cm. The investigated substances were visualized under UV light at λ = 366 nm by CAMAG UV Lamp 4 and the Viewing Box 4 (Philadelphia, USA). […] The obtained retardation factors (RF) were collected in the Supplementary data sheets. The retention parameter, RM, was calculated for each compound according to the Bate-Smith and Westall formula: (7) RM=log(1/RF−1) and listed in Table S2. Next, the Soczewiński–Wachtmeister’s equation: RM = RM^0 + bC(8) was used in order to determine the basic lipophilic RP-TLC parameter RM^0 as well as commonly used hydrophobic constants m. Soczewiński–Wachtmeister’s equation presented a linear relationship between concentration of the organic solvent in mobile phase (C) and RM value. Moreover, mean value of RM was used for lipophilicity assessments.
(§3) Furthermore, C0 RP-TLC lipophilicity parameter, introduced by Bieganowska, has been calculated according to the formula:(9) C0=−RM^0/b.
(§4) The C0 parameter corresponds to the parameter φ0, previously proposed for the HPLC. This parameter relates to the concentration of the organic component in the mobile phase for which the distribution of the analyzed substance between the mobile and stationary phase is equal (1:1).
(§5) Also, the principal component analysis (PCA) was applied in order to extract information regarding the lipophilicity of solutes and formulate them as the first principal component (PC1). Calculation data matrixes included RM values of solutes for each modifier concentration in the mobile phase.

Series [2] is described as follows: MEKC lipophilicity (SDS micelles, pH 7.4). As to conditions: 50 mM SDS, HEPES/TRIS buffer pH 7.4, 25 °C. Here is the method: All MEKC experiments were carried out with a P/ACE MDQ plus system (Sciex, Framingham, MA, USA) equipped with photodiode array detector (PDA) and controlled by 32 Karat software (version 10.2). The uncoated fused silica capillaries (50 µm i.d., Polymicro Technologies, West Yorkshire, UK) of 60 cm total length and 50.2 cm effective length were used. Prior to analysis, the capillary was rinsed with 0.1 M NaOH for 30 min, ultrapure water for 10 min, and background electrolyte (BGE) for 30 min. After each analysis, the capillary was conditioned with BGE for 2 min. The applied pressure for all rinsing operations was 345 kPa. The analytes were dissolved in BGE at concentration of 100 µg/mL with addition of quinine (micelles marker). As electroosmotic flow (EOF) marker, DMSO was used. The samples were hydrodynamically injected at 35 kPa for 5 s. The separations were performed by applying voltage of 20 kV with positive polarity and constant temperatures at 25 ± 0.1 °C. The BGE consisted of aqueous solution of 50 mM SDS and 120 mM HEPES /100 mM TRIS buffer of pH 7.4. The BGE was prepared each working day by dilution of stock solution. Detection was carried out at 200 and 280 nm with 8 Hz probing frequency. The logarithm of retention factor logk was calculated according to the equation introduced by Terabe and co-workers:(10) logkMEKC=log(tR−tEOF/tEOF(1−tR/tMC)) The established logk parameters are summarized in Table 2.

A short description of series [3]: RP-TLC lipophilicity, silica gel C8, methanol-water. As to conditions: for C 0: RP-TLC silica gel C8, C0 = −RM^0/b; for PC1: RP-TLC silica gel C8, first principal component of RM values, contains 83.57% of information; for mRM: RP-TLC silica gel C8, mean value of RM; for R M ^0: RP-TLC silica gel C8, methanol-water 30 to 70% (v/v), intercept of Soczewiński–Wachtmeister equation; for b: RP-TLC silica gel C8, slope of Soczewiński–Wachtmeister equation. Here is the method:
as §1, §2, §3, §4, §5

The results in this text go back to paper PMC6862250, “Lipophilicity Determination of Quaternary (Fluoro)Quinolones by Chromatographic and Theoretical Approaches” (International Journal of Molecular Sciences, 2019).

Turning to `CC1=CC(C)=C(C(=O)O)C2=N[N+]3(CCN(c4cc5c(cc4F)c(=O)c(C(=O)O)cn5C4CC4)CC3)CN12.[Cl-]` [Compound 4], in series [1], the “C 0” value worked out at 0.94, the PC1 was 2.36, the mRM turned out to be 0.72 and the “R M ^0” value came to 1.74. In series [1], the b is −1.85. Further, the logk in series [2] is −0.321. Moreover, in series [3], the “C 0” value was found to be 0.94, the PC1 is given as −0.58, the mRM was 0.84 and the “R M ^0” value is 1.79. The b in series [3] is given as −1.90.
For the compound `CCn1cc(C(=O)O)c(=O)c2cc(F)c(N3CCNCC3)nc21` [Compound 23, enoxacin, reference compound], in series [1], the “C 0” value was 1.37, the PC1 is −3.86, the mRM worked out at 1.62 and the “R M ^0” value is given as 2.70. In series [1], this compound came in with a b of −1.98. For the same compound, the logk in series [2] was 0.156. The compound also returned a logk in series [2] (listed as enoxacin) of 0.1564. For the same compound, in series [3], the “C 0” value was determined as 1.23, the PC1 was −5.38, the mRM worked out at 1.45 and the “R M ^0” value was determined as 2.45. The same compound yielded a b in series [3] of −2.00.
On to `CCn1cc(C(=O)O)c(=O)c2cc(F)c(N3CCNC(C)C3)c(F)c21` (centres unmarked) [Compound 17, reference compound], for which, in series [1], the “C 0” value is on record as 1.15, the PC1 is recorded as −1.08, the mRM was found to be 1.22 and the “R M ^0” value is on record as 2.33. In addition, the b in series [1] is reported as −2.03. Besides, in series [2], the logk came out at 0.077. Besides, in series [3], the “C 0” value is listed as 1.34, the PC1 is −4.09, the mRM stood at 1.29 and the “R M ^0” value is recorded as 2.06. The compound further showed a b in series [3] of −1.54.
On to `C[C@@H]1CN(c2c(F)c(N)c3c(=O)c(C(=O)O)cn(C4CC4)c3c2F)C[C@H](C)N1` [Compound 20, reference compound], for which, in series [1], the “C 0” value was 0.99, the PC1 is recorded as −1.40, the mRM came to 1.28 and the “R M ^0” value is listed as 2.85. In series [1], this compound gave a b of −2.88. Moreover, the logk in series [2] came out at 0.116. In series [3], the “C 0” value was found to be 1.07, the PC1 is given as −3.81, the mRM is recorded as 1.21 and the “R M ^0” value worked out at 2.27. In series [3], this compound registered a b of −2.13.
For `CCn1cc(C(=O)O)c(=O)c2cc(F)c(N3CC[N+]4(CC3)CN3C(C)=CC(C)=C(C(=O)O)C3=N4)nc21.[Cl-]` [Compound 11], in series [1], the “C 0” value is reported as 1.08, the PC1 amounted to 1.51, the mRM was 0.84 and the “R M ^0” value turned out to be 1.72. Besides, the b in series [1] is on record as −1.59. In series [2], the logk is listed as −0.398. In series [3], the “C 0” value is 1.06, the PC1 was −0.54, the mRM was 0.84 and the “R M ^0” value came out at 1.59. Besides, the b in series [3] is recorded as −1.50.
Consider `CCn1cc(C(=O)O)c(=O)c2cc(F)c(N3CCNCC3)cc21` [Compound 18, reference compound], for which, in series [1], the “C 0” value turned out to be 1.24, the PC1 was −2.34, the mRM amounted to 1.40 and the “R M ^0” value amounted to 2.54. In series [1], this compound showed a b of −2.06. Further, in series [2], the logk worked out at 0.103. For the same compound, in series [3], the “C 0” value is recorded as 1.27, the PC1 was −5.56, the mRM stood at 1.47 and the “R M ^0” value is given as 2.43. This compound also showed a b in series [3] of −1.90.
On to `CCn1cc(C(=O)O)c(=O)c2cc(F)c(N3CC[N+]4(CC3)CN3C(=N4)C(C(=O)O)=Cc4ccccc43)cc21.[Cl-]` [Compound 1], for which, in series [1], the “C 0” value was found to be 1.21, the PC1 was 0.72, the mRM came out at 0.96 and the “R M ^0” value worked out at 1.65. This compound also had a b in series [1] of −1.36. For the same compound, the logk in series [2] was −0.104. Moreover, in series [3], the “C 0” value came to 1.04, the PC1 is listed as −2.23, the mRM is on record as 1.03 and the “R M ^0” value was found to be 1.99. In series [3], the b is on record as −1.92.
Turning to `COc1c(N2CC[N+]3(CN4C(C)=CC(C)=C(C(=O)O)C4=N3)C(C)C2)c(F)cc2c(=O)c(C(=O)O)cn(C3CC3)c12.[Cl-]` (centres unmarked) [Compound 13], in series [1], the “C 0” value came to 0.88, the PC1 was found to be 1.74, the mRM was 0.82 and the “R M ^0” value was determined as 2.18. This compound also showed a b in series [1] of −2.47. For the same compound, the logk in series [2] is −0.408. For the same compound, in series [3], the “C 0” value was determined as 0.92, the PC1 is reported as −0.64, the mRM is 0.83 and the “R M ^0” value was determined as 1.82. In addition, the b in series [3] is given as −1.97.
Consider `CCn1cc(C(=O)O)c(=O)c2cnc(N3CC[N+]4(CC3)CN3C(C)=CC(C)=C(C(=O)O)C3=N4)nc21.[Cl-]` [Compound 10], for which, in series [1], the “C 0” value worked out at 1.22, the PC1 was 2.53, the mRM stood at 0.70 and the “R M ^0” value came to 1.27. For the same compound, in series [1], the b is given as −1.04. In series [3], the “C 0” value amounted to 1.28, the PC1 is listed as 0.79, the mRM worked out at 0.71 and the “R M ^0” value is 1.16. This compound displayed a b in series [3] of −0.91.
Turning to `CCn1cc(C(=O)O)c(=O)c2cnc(N3CC[N+]4(CC3)CN3C(=N4)C(C(=O)O)=Cc4ccccc43)nc21.[Cl-]` [Compound 6], in series [1], the “C 0” value is 1.23, the PC1 is on record as 0.53, the mRM was 0.98 and the “R M ^0” value was 1.78. Further, the b in series [1] is given as −1.45. Moreover, in series [3], the “C 0” value is given as 2.35, the PC1 is recorded as −1.73, the mRM was 1.04 and the “R M ^0” value is given as 1.32. The b in series [3] was −0.56.
Take `O=C(O)c1cn(C2CC2)c2cc(N3CCNCC3)c(F)cc2c1=O` [Compound 22, ciprofloxacin, reference compound]: in series [1], the “C 0” value amounted to 1.30, the PC1 is on record as −3.88, the mRM amounted to 1.62 and the “R M ^0” value is given as 2.79. This compound displayed a b in series [1] of −2.15. For the same compound, in series [3], the “C 0” value came out at 1.61, the PC1 is on record as −5.04, the mRM is 1.41 and the “R M ^0” value is 2.04. For the same compound, in series [3], the b was −1.27.
